Earlier results as cited in patent US6013636A, “Anthelmintic macrocyclic lactone compositions” (Ashmont Holdings Limited, priority 1995, dated 2000).

Assays:
[1] = sesame oil, soya bean oil and corn oil

Solubility in oils [1] | Stability in water | Molecule
sparingly soluble | oxidise and break down in water | CO[C@H]1C[C@H](O[C@H]2[C@H](C)O[C@@H](O[C@@H]3/C(C)=C/C[C@@H]4C[C@@H](C[C@]5(C=C[C@H](C)[C@@H](C6CCCCC6)O5)O4)OC(=O)[C@@H]4C=C(C)[C@@H](O)[C@H]5OC/C(=C\C=C\[C@@H]3C)[C@]54O)C[C@@H]2OC)O[C@@H](C)[C@@H]1O [doramectin]
sparingly soluble | oxidise and break down in water | CO/N=C1\C[C@]2(C[C@@H]3C[C@@H](C/C=C(\C)C[C@@H](C)/C=C/C=C4\CO[C@@H]5[C@H](O)C(C)=C[C@@H](C(=O)O3)[C@]45O)O2)O[C@H](/C(C)=C/C(C)C)[C@H]1C [moxidectin]

Molecule | Solubility in oils [1] | Stability in water
ivermectin | sparingly soluble | oxidise and break down in water
